Assay results: patent US20250122174A1 (Shenzhen Yuanli Shenwan Innovative Medicine Co., Ltd., priority 2022, published 2025)
pIC50: −log10 of the molar value.

What follows are compounds tested against HPK1 (Homo sapiens (Human), UniProt Q92918) (assay: HPK1 Inhibition Assay (ADP-Glo kinase assay)). Details: ATP 10 μM.
Format: biochemical
Method in brief: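 ADP-Glo luminescence read-out after 1 h room-temperature kinase reaction with 10 μM ATP and 0.1 μg/ml MBP. Recombinant human HPK1 at 7.5 ng/μl; buffer 40 mM Tris pH 7.5, 20 mM MgCl2. Compounds serially diluted 5-fold over 10 points from 10 mM DMSO stock.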

Chain of HPK1 (Q92918 1-346 limits assumed): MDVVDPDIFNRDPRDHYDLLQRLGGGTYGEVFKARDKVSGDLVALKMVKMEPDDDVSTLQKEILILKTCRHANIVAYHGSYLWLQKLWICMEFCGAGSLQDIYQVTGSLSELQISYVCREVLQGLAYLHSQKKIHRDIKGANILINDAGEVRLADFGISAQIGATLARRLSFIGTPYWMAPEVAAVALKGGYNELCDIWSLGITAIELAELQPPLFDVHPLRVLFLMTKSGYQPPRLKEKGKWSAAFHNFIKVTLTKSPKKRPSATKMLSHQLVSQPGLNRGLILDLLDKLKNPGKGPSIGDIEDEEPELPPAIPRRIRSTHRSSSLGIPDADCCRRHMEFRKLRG

pIC50 | SMILES
> 7.00 | C[C@@H]1CN(c2c(NC(=O)c3ccc(=O)n(-c4c(F)cccc4F)n3)ccc3nn(C45CC6CC(CC(C6)C4)C5)cc23)C[C@@H]1N [Example 305, N-(2-((3S,5S,7S)-adamantan-1-yl)-4-((3R,4R)-3-amino-4-methylpyrrolidin-1-yl)-2H-indazol-5-yl)-1-(2,6-difluorophenyl)-6-oxo-1,6-dihydropyridazine-3-carboxamide]
> 7.00 | COc1cccc(F)c1-n1nc(C(=O)Nc2ccc3c(nc(C)n3C)c2N2CC[C@H](N)C2)ccc1=O [Example 66, (S)—N-(4-(3-aminopyrrolidin-1-yl)-1,2-dimethyl-1H-benzo[d]imidazol-5-yl)-1-(2-fluoro-6-methoxyphenyl)-6-oxo-1,6-dihydropyridazine-3-carboxamide]
> 7.00 | C[C@H]1CN(c2c(NC(=O)c3ccc(=O)n(-c4c(F)cccc4F)n3)ccc3nn(C4CC(F)(F)C4)cc23)C[C@@H]1N [Example 309, N-(4-((3R,4S)-3-amino-4-methylpyrrolidin-1-yl)-2-(3,3-difluorocyclobutyl)-2H-indazol-5-yl)-1-(2,6-difluorophenyl)-6-oxo-1,6-dihydropyridazine-3-carboxamide]
> 7.00 | C[C@@H]1CN(c2c(NC(=O)c3ccc(=O)n(-c4c(F)cccc4F)n3)cc(F)c3c2cnn3C)C[C@@H]1N [Example 170, N-(4-((3R,4R)-3-amino-4-methylpyrrolidin-1-yl)-7-fluoro-1-methyl-1H-indazol-5-yl)-1-(2,6-difluorophenyl)-6-oxo-1,6-dihydropyridazine-3-carboxamide]
6.00 to 7.00 | CC(C)n1nc(F)c2c(N3C[C@H](N)C4(CC4)C3)c(NC(=O)c3ccc(=O)n(-c4c(F)cccc4F)n3)ccc21 [Example 199, (R)-N-(4-(7-amino-5-azaspiro[2.4]heptan-5-yl)-3-fluoro-1-isopropyl-1H-indazol-5-yl)-1-(2,6-difluorophenyl)-6-oxo-1,6-dihydropyridazine-3-carboxamide]
> 7.00 | CC(C)n1ncc2c(N3CC[C@H](N)C3)c(NC(=O)c3ccc(=O)n(-c4c(F)cccc4F)n3)ccc21 [Example 207, (S)-N-(4-(3-aminopyrrolidin-1-yl)-1-isopropyl-1H-indazol-5-yl)-1-(2,6-difluorophenyl)-6-oxo-1,6-dihydropyridazine-3-carboxamide]
> 7.00 | CC(C)c1nc2c(N3CC4[C@@H](N)[C@@H]4C3)c(NC(=O)c3ccc(=O)n(-c4c(F)cccc4F)n3)ccc2n1C (stereo partly drawn) [Example 118, N-(4-((1R,5S,6s)-6-amino-3-azabicyclo[3.1.0]hexan-3-yl)-2-isopropyl-1-methyl-1H-benzo[d]imidazol-5-yl)-1-(2,6-difluorophenyl)-6-oxo-1,6-dihydropyridazine-3-carboxamide]
> 7.00 | COCCn1ncc2c(N3CCC[C@@H](N)C3)c(NC(=O)c3ccc(=O)n(-c4c(F)cccc4F)n3)cc(F)c21 [Example 286, (R)-N-(4-(3-aminopiperidin-1-yl)-7-fluoro-1-(2-methoxyethyl)-1H-indazol-5-yl)-1-(2,6-difluorophenyl)-6-oxo-1,6-dihydropyridazine-3-carboxamide]
> 7.00 | CC(C)c1nc2c(N3CC(F)(F)C[C@H]3CN)c(NC(=O)c3ccc(=O)n(-c4c(F)cccc4F)n3)cc(F)c2n1C [Example 144, (S)-N-(4-(2-(aminomethyl)-4,4-difluoropyrrolidin-1-yl)-7-fluoro-2-isopropyl-1-methyl-1H-benzo[d]imidazol-5-yl)-1-(2,6-difluorophenyl)-6-oxo-1,6-dihydropyridazine-3-carboxamide]

The remaining lines, values behind:

SMILES | pIC50
Cc1nc2c(N3CC(N)CC(F)(F)C3)c(NC(=O)c3ccc(=O)n(-c4c(F)cccc4F)n3)ccc2n1C (centres unmarked) [Example 96, N-(4-(5-amino-3,3-difluoropiperidin-1-yl)-1,2-dimethyl-1H-benzo[d]imidazol-5-yl)-1-(2,6-difluorophenyl)-6-oxo-1,6-dihydropyridazine-3-carboxamide] | > 7.00
CC[C@@H]1CN(c2c(NC(=O)c3ccc(=O)n(-c4c(F)cccc4F)n3)cc(F)c3c2cnn3C(C)C)C[C@@H]1N [Example 216, N-(4-((3R,4R)-3-amino-4-ethylpyrrolidin-1-yl)-7-fluoro-1-isopropyl-1H-indazol-5-yl)-1-(2,6-difluorophenyl)-6-oxo-1,6-dihydropyridazine-3-carboxamide] | > 7.00
CC1(C)CN(c2c(NC(=O)c3ccc(=O)n(-c4c(F)cccc4F)n3)ccc3c2cnn3[C@H]2CCOC2)C[C@H]1N [Example 270, N-(4-((S)-4-amino-3,3-dimethylpyrrolidin-1-yl)-1-((S)-tetrahydrofuran-3-yl)-1H-indazol-5-yl)-1-(2,6-difluorophenyl)-6-oxo-1,6-dihydropyridazine-3-carboxamide] | > 7.00
[2H]C([2H])([2H])C([2H])(n1ncc2c(N3C[C@H](N)C(C)(C)C3)c(NC(=O)c3ccc(=O)n(-c4c(F)cccc4F)n3)ccc21)C([2H])([2H])[2H] [Example 281, (R)-N-(4-(4-amino-3,3-dimethylpyrrolidin-1-yl)-1-(propan-2-yl-d7)-1H-indazol-5-yl)-1-(2,6-difluorophenyl)-6-oxo-1,6-dihydropyridazine-3-carboxamide] | > 7.00
CC(C)c1nc2c(N3CCC4(CCNC4)C3)c(NC(=O)c3ccc(=O)n(-c4c(F)cccc4F)n3)ccc2n1C (centres unmarked) [Example 136, 1-(2,6-difluorophenyl)-N-(2-isopropyl-1-methyl-4-(2,7-diazaspiro[4.4]nonan-2-yl)-1H-benzo[d]imidazol-5-yl)-6-oxo-1,6-dihydropyridazine-3-carboxamide] | > 7.00
N[C@H]1CN(c2c(NC(=O)c3ccc(=O)n(-c4c(F)cccc4F)n3)ccc3nn(C4(C(F)(F)F)CC4)cc23)CC12CC2 (single isomer, unassigned) [Example 313] | > 7.00
COc1cccc(F)c1-c1nccc(C(=O)Nc2ccc(-c3cnccc3C#N)cc2N2C[C@@H](N)C[C@H]2CO)c1F [Example 13, N-(2-((2S,4S)-4-amino-2-(hydroxymethyl)pyrrolidin-1-yl)-4-(4-cyanopyridin-3-yl)phenyl)-3-fluoro-2-(2-fluoro-6-methoxyphenyl)isonicotinamide] | > 7.00
C[C@@H]1CN(c2c(NC(=O)c3ccc(=O)n(-c4c(F)cccc4F)n3)ccc3c2cnn3C)C[C@@H]1N [Example 166, N-[4-[(3R,4R)-3-amino-4-methyl-pyrrolidin-1-yl]-1-methyl-indazol-5-yl]-1-(2,6-difluorophenyl)-6-oxo-pyridazine-3-carboxamide] | > 7.00
CC(C)n1ncc2c(N3C[C@@H](N)C(C)(C)C3)c(NC(=O)c3ccc(=O)n(-c4c(F)cccc4F)n3)ccc21 [Example 187, (S)-N-(4-(4-amino-3,3-dimethylpyrrolidin-1-yl)-1-isopropyl-1H-indazol-5-yl)-1-(2,6-difluorophenyl)-6-oxo-1,6-dihydropyridazine-3-carboxamide] | > 7.00
COc1cccc(F)c1-c1nccc(C(=O)Nc2ccc3c(nc(C)n3C)c2N2CCC(N)CC2)c1F [Example 8, N-(4-(4-aminopiperidin-1-yl)-1,2-dimethyl-1H-benzo[d]imidazol-5-yl)-3-fluoro-2-(2-fluoro-6-methoxyphenyl)isonicotinamide] | > 7.00
Cc1nc2c(N3CCC(C)(N)CC3)c(NC(=O)c3ccc(=O)n(-c4c(F)cccc4F)n3)ccc2n1C [Example 76, N-(4-(4-amino-4-methylpiperidin-1-yl)-1,2-dimethyl-1H-benzo[d]imidazol-5-yl)-1-(2,6-difluorophenyl)-6-oxo-1,6-dihydropyridazine-3-carboxamide] | > 7.00
C[C@H]1CN(c2c(NC(=O)c3ccc(=O)n(-c4c(F)cccc4F)n3)ccc3nn(C45CCC(CC4)C5)cc23)C[C@@H]1N [Example 312, N-(4-((3R,4S)-3-amino-4-methylpyrrolidin-1-yl)-2-(bicyclo[2.2.1]heptan-1-yl)-2H-indazol-5-yl)-1-(2,6-difluorophenyl)-6-oxo-1,6-dihydropyridazine-3-carboxamide] | > 7.00
C[C@@H]1CN(c2c(NC(=O)c3ccc(=O)n(-c4c(F)cccc4F)n3)ccc3c2nc(C(C)(C)C)n3C)C[C@@H]1N [Example 104, N-(4-((3R,4R)-3-amino-4-methylpyrrolidin-1-yl)-2-(tert-butyl)-1-methyl-1H-benzo 112 midazolezol-5-yl)-1-(2,6-difluorophenyl)-6-oxo-1,6-dihydropyridazine-3-carboxamide] | > 7.00
COc1cccc(F)c1-n1nccc(C(=O)Nc2ccc3c(nc(C(F)(F)F)n3C)c2N2CC[C@H](N)C2)c1=O [Example 41, (S)-N-(4-(3-aminopyrrolidin-1-yl)-1-methyl-2-(trifluoromethyl)-1H-benzo[d]imidazol-5-yl)-2-(2-fluoro-6-methoxyphenyl)-3-oxo-2,3-dihydropyridazine-4-carboxamide] | > 7.00
COc1cccc(F)c1-c1nccc(C(=O)Nc2ccc3c(nc(C)n3C)c2N2CC[C@H](N)C2)c1F [Example 10, N-(4-((S)-3-aminopyrrolidin-1-yl)-1,2-dimethyl-1H-benzo[d]imidazol-5-yl)-3-fluoro-2-(2-fluoro-6-methoxyphenyl)isonicotinamide] | > 7.00
CC1(C)CN(c2c(NC(=O)c3ccc(=O)n(-c4c(F)cccc4F)n3)ccc3c2cnn3[C@@H]2CCOC2)C[C@@H]1N [Example 267, N-(4-((R)-4-amino-3,3-dimethylpyrrolidin-1-yl)-1-((R)-tetrahydrofuran-3-yl)-1H-indazol-5-yl)-1-(2,6-difluorophenyl)-6-oxo-1,6-dihydropyridazine-3-carboxamide] | > 7.00
N#Cc1ccncc1-c1ccc(NC(=O)c2ccc(=O)n(-c3c(F)cccc3F)n2)c(N2CC[C@@H](N)C2)c1 [Example 343, (R)-N-(2-(3-aminopyrrolidin-1-yl)-4-(4-cyanopyridin-3-yl)phenyl)-1-(2,6-difluorophenyl)-6-oxo-1,6-dihydropyridazine-3-carboxamide] | > 7.00
